The source of these data is patent publication US20080102130A1, “DRY GRANULATED PHARMACEUTICAL COMPOSITIONS AND METHODS FOR PRODUCING SAME” (Janssen Pharmaceutica NV, priority 2006, published 2008).

This series can be described thus: Particle size distribution of the drug substance. In kind it is physicochemical. From the text: Tapentadol is predominantly rectangular or rod-shaped crystalline powder. […] The D10 can be as low as 5 microns while the D99 can be as high as 500 microns. Although, the particle size distribution of the drug substance is controlled during crystallization, milling or micronizing the API to less than a micron size would not affect processability, as described herein, or the attribute of the drug product. Other APIs with similar properties such as Tramadol are expected to have a similar behavior.

Take `CC[C@@H](c1cccc(O)c1)[C@@H](C)CN(C)C` [Tapentadol]: the “Particle size distribution D10” value is at least 5 microns and the “Particle size distribution D99” value is at most 500 microns.
